In data set [1] the test system is HCT116 colorectal carcinoma. The data set can be described thus: In vitro cytotoxicity (CellTiter-Blue), HCT116. It is filed as cell-based. As to conditions: Homo sapiens, HCT-116; 72 hours of incubation. The procedure:
(§1) The biological activity of the compounds of the invention were studied in vitro on […] human cancer cell lines of different tissular origins: HCT116 colorectal carcinoma; A2780R Cisplatin resistant ovary cancer; MiaPaca2 pancreatic cancer; K562R Doxorubicin resistant chronic myeloid leukaemia; JIM-T1 Trastuzumab-DM1 resistant mammal carcinoma; and HepG2 hepatic carcinoma. The cells selected for this study were incubated at 37° C. in the presence of one of the compounds added to the culture medium at different concentrations. The series of experiments carried out made it possible to determine the degree of toxicity of the compound tested, its effect on cell cycle progression as well as its capacity to induce cell death by apoptosis.
All the cell lines were maintained in culture at 37° C. in a humid atmosphere containing 5% CO2. Cell viability was evaluated using the reagent CellTiter-Blue™ (Promega, Wis., USA) while respecting the manufacturer's instructions. The cells were seeded in 96 well culture plates at a rate of 5000 cells per […] in 50 μl of culture medium. After 24 hours of culture, the compounds of generic formula (I) dissolved in DMSO were added individually to each of the wells at a rate of 50 μl per well. All the compounds were tested in triplicate for each concentration defined and each experiment was repeated 3 times. After 72 hours of incubation, 20 μL of resazurin were added to each well. After 2 hours of incubation, the fluorescence emitted was measured at 590 nm after excitation at 560 nm by means of a Victor type fluorescence reader (Perkin-Elmer, USA).
In general terms: Alamar Blue is a resazurin reagent that responds to reducing activity.

In a further data set the test system is tubulin. The data set can be described thus: Tubulin polymerisation inhibition (fluorescence assembly assay). It is filed as biochemical, ewe. Particulars: inhibition of 50% of the maximum assembly rate; tubulin 10 μM. The procedure:
The tubulin is purified from ewe brains according to the Shelanski method by 2 assembly-disassembly cycles. The mother solution (15-20 mg/mL), stored at −196° C., is thawed and diluted in the assembly buffer (0.1 M MES, 0.5 mM MgCl2, 1 mM EGTA, and 1 mM GTP, pH 6.6) to have a final concentration of 10 μM. Tubulin assembly is monitored by fluorescence on 96 well plates according to the method of Barron et al. (Anal. Biochem. 315 (2003) 49-56). To the solution of tubulin (10 μM, 100 μL per well) is added the inhibitor (DMSO, 1 μL) and the solution is incubated for 45 min at room temperature. GTP (1 mM final) is next added, the solution is rapidly mixed and the fluorescence (λex=350 nm, λem=440 nm) is measured on a Wallac Victor fluorimeter (Perkin Elmer). The determination of the inhibition of 50% of the maximum assembly rate (IC50) is carried out in duplicate or triplicate over 10 concentrations surrounding the IC50.

For data set [2], the system named is A2780R Cisplatin resistant ovary cancer. The data set can be described thus: In vitro cytotoxicity (CellTiter-Blue), A2780R. In kind it is cell-based. As to conditions: Homo sapiens; 72 hours of incubation. The procedure:
as §1
(§2) All the cell lines were maintained in culture at 37° C. in a humid atmosphere containing 5% CO2. Cell viability was evaluated using the reagent CellTiter-Blue™ (Promega, Wis., USA) while respecting the manufacturer's instructions. The cells were seeded in 96 well culture plates at a rate of 5000 cells per […] in 50 μl of culture medium. […] After 2 hours of incubation, the fluorescence emitted was measured at 590 nm after excitation at 560 nm by means of a Victor type fluorescence reader (Perkin-Elmer, USA).

Data set [3] deals with MiaPaca2 pancreatic cancer. The data set can be described thus: In vitro cytotoxicity (CellTiter-Blue), MiaPaca2. It is filed as cell-based. Particulars: Homo sapiens, MIA PaCa-2; 72 hours of incubation. The procedure: as §1, §2
Data set [4] concerns K562R Doxorubicin resistant chronic myeloid leukaemia. The data set can be described thus: In vitro cytotoxicity (CellTiter-Blue), K562R. It is filed as cell-based. Particulars: Homo sapiens, K-562R; 72 hours of incubation. The procedure: as §1, §2
In data set [5] the test system is JIM-T1 Trastuzumab-DM1 resistant mammal carcinoma. The data set can be described thus: In vitro cytotoxicity (CellTiter-Blue), JIM-T1. In kind it is cell-based. Particulars: Homo sapiens, JIMT-1; 72 hours of incubation. As to the method:
as §1, §2

The conditions of data set [6]: prior art WO 2008/122620; cited from earlier work.

The values that follow come from US20230203005A1, “COMPOUNDS WITH TUBULIN POLYMERISATION INHIBITORY ACTIVITY AND IMMUNOMODULATORY PROPERTIES” (UNIVERSITE PARIS-SACLAY, priority 2018, published 2023).

Molecules are shown by their SMILES.

`COc1cccc2c(N(C)c3ccc4c(c3)c3ccccc3n4C)cc(C)nc12` [Compound 6, N-(8-Methoxy-2-methylquinolin-4-yl)-N,9-dimethyl-9H-carbazol-3-amine]: the IC50 in data set [1] is 21.6 ± 0.71 nM; in the data set on tubulin it was 1480 ± 520 nM.

Take `CN(c1ccc2c(ccn2C)c1)c1nc(Cl)nc2ccccc12` [Compound 21, 2-Chloro-N-methyl-N-(1-methyl-1H-indol-5-yl)quinazolin-4-amine]: the IC50 stood at 0.2 ± 0.01 nM in data set [1]; 2.34 ± 0.18 nM in data set [2]; 0.62 ± 0.016 nM in data set [3]; 1.77 ± 0.162 nM in data set [4]; 0.52 ± 0.016 nM in data set [5]; 1190 ± 280 nM with tubulin.

As to `Cc1cc(N(C)c2ccc3c(c2)c2cc(N)ccc2n3C)c2ccccc2n1` [Compound 14, N3,9-dimethyl-N3-(2-methylquinolin-4-yl)-9H-carbazole-3,6-diamine], the IC50 in data set [1] turned out to be 2.88 ± 1.54 nM; with tubulin, 2760 ± 500 nM.

`CN(c1ccc2c(c1)c1ccccc1n2C)c1ccnc2ccccc12` [Compound 4, N,9-Dimethyl-N-(quinolin-4-yl)-9H-carbazol-3-amine] displayed a melting point of 222.2 to 228.4 °C.

`CN(c1ccc2c(c1)c1ccccc1n2C)c1nc(Cl)nc2ccccc12` [Compound 10, N-(2-Chloroquinazolin-4-yl)-N,9-dimethyl-9H-carbazol-3-amine]: the IC50 in data set [1] was found to be 1.06 ± 0.2 nM; in the data set on tubulin, 3140 ± 1040 nM.

With `CN(c1ccc2c(c1)c1ccccc1n2C)c1cc(C#N)nc2ccccc12` [Compound 2, 4-(Methyl(9-methyl-9H-carbazol-3-yl)amino)quinoline-2-carbonitrile], the IC50 in data set [1] turned out to be 12 ± 0.8 nM; in the data set with tubulin, 1400 ± 510 nM.

The molecule `CN(c1ccc2c(ccn2C)c1)c1cc(C#N)nc2ccccc12` [Compound 19, 4-(Methyl(1-methyl-1H-indol-5-yl)amino)quinoline-2-carbonitrile] returned a melting point of 173.1 to 174.2 °C. This molecule also yielded an IC50 in data set [1] of 0.72 ± 0.03 nM. Half-maximal inhibition with tubulin (IC50) required 2780 ± 1140 nM.

Take `Cc1cc(N(C)c2ccc3c(c2)c2ccccc2n3C)c2cc(N)ccc2n1` [Compound 16, N4,2-Dimethyl-N4-(9-methyl-9H-carbazol-3-yl)quinoline-4,6-diamine]: the IC50 in data set [1] turned out to be 24.5 ± 1.92 nM; in the data set on tubulin, 5760 ± 1470 nM.

Consider `CN(c1ccc2c(ccn2C)c1)c1cc(C(F)(F)F)nc2ccccc12` [Compound 20, N-Methyl-N-(1-methyl-1H-indol-5-yl)-2-(trifluoromethyl)quinolin-4-amine], for which the IC50 in data set [1] amounted to 3.28 ± 0.18 nM; with tubulin, 2500 ± 540 nM.

With `C=C(c1ccc(OC)c(O)c1)c1cc(OC)c(OC)c(OC)c1` [isoCA-4, Isocombretastatin A-4], the “Metabolism in the presence of hepatocytes” value in data set [6] was “do not metabolise in the presence of hepatocytes”.

Regarding `CN(c1ccc2c(c1)c1ccccc1n2C)c1cc(Cl)nc2ccccc12` [Compound 17, N-(2-Chloroquinolin-4-yl)-N,9-dimethyl-9H-carbazol-3-amine], the IC50 turned out to be 16.7 ± 0.38 nM in data set [1] and 1160 ± 310 nM in the data set with tubulin.

Consider `Cc1cc(N(C)c2ccc3c(c2)c2ccccc2n3C)c2cc([N+](=O)[O-])ccc2n1` [Compound 7, N,9-Dimethyl-N-(2-methyl-6-nitroquinolin-4-yl)-9H-carbazol-3-amine], for which the melting point lay in the range of 207.6 to 212.4 °C.

For the molecule `C=C(c1ccc(OC)c(N)c1)c1cc(OC)c(OC)c(OC)c1` [isoNH2CA-4, isoaminocombretastatin A-4], the “Metabolism in the presence of hepatocytes” value in data set [6] was “do not metabolise in the presence of hepatocytes”.

Consider `Cc1cc(N(C)c2ccc3c(ccn3C)c2)c2ccccc2n1` [Compound 18, N,2-Dimethyl-N-(1-methyl-1H-indol-5-yl)quinolin-4-amine], for which the results for the IC50 (in data set [1]; in the data set with tubulin) were 2 ± 0.04 nM and 1340 ± 450 nM, respectively.

`Cc1cc(N(C)c2ccc3c(c2)c2ccccc2n3Cc2ccccc2)c2ccccc2n1` [Compound 5, 9-Benzyl-N-methyl-N-(2-methylquinolin-4-yl)-9H-carbazol-3-amine] registered a melting point of 192.7 to 196.5 °C.

Molecule `CCn1c2ccccc2c2cc(N(C)c3cc(C)nc4ccccc34)ccc21` [Compound 8, 9-Ethyl-N-methyl-N-(2-methylquinolin-4-yl)-9H-carbazol-3-amine] gave a melting point of 87.4 to 89.6 °C.

Consider `Cc1cc(N(C)c2ccc3c(c2)c2ccccc2n3C)c2cccc(O)c2n1` [Compound 15, 2-Methyl-4-(methyl(9-methyl-9H-carbazol-3-yl)amino)quinolin-8-ol], for which the IC50 in data set [1] was determined as 50.6 ± 0.66 nM; in the data set on tubulin it was 1240 ± 400 nM.

Take `Cc1nc(N(C)c2ccc3c(c2)c2ccccc2n3C)c2ccccc2n1` [Compound 9, N,9-Dimethyl-N-(2-methylquinazolin-4-yl)-9H-carbazol-3-amine]: the IC50 worked out at 2.4 ± 0.2 nM in data set [1] and 3800 ± 900 nM in the data set with tubulin.

One may read the IC50 as the concentration that inhibits the measured activity by half. A higher IC50 goes with weaker potency. A word on the melting point: it is the temperature of the solid-liquid transition.
